Assay results as given in patent US20260062412A1, “NITROGEN-CONTAINING HETEROCYCLIC COMPOUND HAVING MYT1 INHIBITORY ACTIVITY” (CHUGAI SEIYAKU KABUSHIKI KAISHA, priority 2023, published 2026).

Target: MYT1 protein (Homo sapiens (Human), UniProt Q99640)
Assay: Test for binding to ATP binding site of MYT1 (Kinase Tracer 178 / Eu-Anti-GST antibody TR-FRET)
Conditions: ATP binding site of MYT1, 30 minutes at room temperature

Chain of MYT1 protein (Q99640 whole entry): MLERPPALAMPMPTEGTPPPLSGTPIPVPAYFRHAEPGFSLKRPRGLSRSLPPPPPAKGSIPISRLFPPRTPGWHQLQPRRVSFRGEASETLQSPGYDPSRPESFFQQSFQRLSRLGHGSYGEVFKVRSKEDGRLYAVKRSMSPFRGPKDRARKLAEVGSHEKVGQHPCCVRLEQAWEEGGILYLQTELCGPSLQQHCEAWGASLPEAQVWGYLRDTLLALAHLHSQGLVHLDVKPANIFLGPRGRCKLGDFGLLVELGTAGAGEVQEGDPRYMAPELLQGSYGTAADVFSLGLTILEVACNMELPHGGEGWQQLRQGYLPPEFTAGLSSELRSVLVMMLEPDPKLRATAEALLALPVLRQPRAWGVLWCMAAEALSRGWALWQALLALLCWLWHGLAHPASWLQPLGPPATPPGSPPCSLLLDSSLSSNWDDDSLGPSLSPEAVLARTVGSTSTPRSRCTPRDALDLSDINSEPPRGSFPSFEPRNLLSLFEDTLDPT

Compound	IC50 [nM]
CC(C)(O)CCOc1cc2c(-c3ccc(F)c4[nH]ncc34)c(N)c(=O)[nH]c2c2cccnc12 [Compound C20, 3-Amino-4-(7-fluoro-1H-indazol-4-yl)-6-(3-hydroxy-3-methylbutoxy)-1H-1,7-phenanthrolin-2-one]	3.6
C[C@H](Oc1cc2c(-c3ccc(F)c4[nH]ncc34)c(N)c(=O)[nH]c2c2cccnc12)C(F)(F)F [Compound C22, 3-Amino-4-(7-fluoro-1H-indazol-4-yl)-6-[(2S)-1,1,1-trifluoropropan-2-yl]oxy-1H-1,7-phenanthrolin-2-one]	7.9
Nc1c(-c2ccc(F)c3[nH]ncc23)c2cc(OC3CC(F)(F)C3)c3ncccc3c2[nH]c1=O [Compound C23, 3-Amino-6-(3,3-difluorocyclobutyl)oxy-4-(7-fluoro-1H-indazol-4-yl)-1H-1,7-phenanthrolin-2-one]	5
CC(C)(O)COc1cc2c(-c3ccc(F)c4[nH]ncc34)c(N)c(=O)[nH]c2c2cccnc12 [Compound C24, 3-Amino-4-(7-fluoro-1H-indazol-4-yl)-6-(2-hydroxy-2-methylpropoxy)-1H-1,7-phenanthrolin-2-one]	6.5
C[C@@H](Oc1cc2c(-c3ccc(F)c4[nH]ncc34)c(N)c(=O)[nH]c2c2cccnc12)C(F)(F)F [Compound C27, 3-Amino-4-(7-fluoro-1H-indazol-4-yl)-6-[(2R)-1,1,1-trifluoropropan-2-yl]oxy-1H-1,7-phenanthrolin-2-one]	4.4
Nc1c(-c2ccc(F)c3[nH]ncc23)c2cc(O[C@H]3C[C@@H](F)C3)c3ncccc3c2[nH]c1=O [Compound C28, 3-Amino-4-(7-fluoro-1H-indazol-4-yl)-6-((1s,3s)-3-fluorocyclobutoxy)-1,7-phenanthrolin-2(1H)-one]	1.8
CO[C@H]1C[C@@H](Oc2cc3c(-c4ccc(F)c5[nH]ncc45)c(N)c(=O)[nH]c3c3cccnc23)C1 [Compound C29, 3-Amino-4-(7-fluoro-1H-indazol-4-yl)-6-((1s,3s)-3-methoxycyclobutoxy)-1,7-phenanthrolin-2(1H)-one]	3.3
CO[C@H]1C[C@H](Oc2cc3c(-c4ccc(F)c5[nH]ncc45)c(N)c(=O)[nH]c3c3cccnc23)C1 [Compound C30, 3-Amino-4-(7-fluoro-1H-indazol-4-yl)-6-((1r,3r)-3-methoxycyclobutoxy)-1,7-phenanthrolin-2(1H)-one]	5.8
N#C[C@H]1C[C@H](Oc2cc3c(-c4ccc(F)c5[nH]ncc45)c(N)c(=O)[nH]c3c3cccnc23)C1 [Compound C31, (1r,3r)-3-[[3-Amino-4-(7-fluoro-1H-indazol-4-yl)-2-oxo-1H-1,7-phenanthrolin-6-yl]oxy]cyclobutane-1-carbonitrile]	4.3
Nc1c(-c2ccc(F)c3[nH]ncc23)c2cc(OC[C@H]3CCCO3)c3ncccc3c2[nH]c1=O [Compound C35, 3-Amino-4-(7-fluoro-1H-indazol-4-yl)-6-[[(2R)-oxolan-2-yl]methoxy]-1H-1,7-phenanthrolin-2-one]	4.4
Nc1c(-c2ccc(F)c3[nH]ncc23)c2cc(OCC3(F)CC3)c3ncccc3c2[nH]c1=O [Compound C38, 3-Amino-6-[(1-fluorocyclopropyl)methoxy]-4-(7-fluoro-1H-indazol-4-yl)-1H-1,7-phenanthrolin-2-one]	5.7
Nc1c(-c2ccc(F)c3[nH]ncc23)c2cc(OCC3CC(F)(F)C3)c3ncccc3c2[nH]c1=O [Compound C39, 3-Amino-6-[(3,3-difluorocyclobutyl)methoxy]-4-(7-fluoro-1H-indazol-4-yl)-1H-1,7-phenanthrolin-2-one]	6.5
Nc1c(-c2ccc(F)c3[nH]ncc23)c2cc(OC3CC4(COC4)C3)c3ncccc3c2[nH]c1=O [Compound C41, 3-Amino-4-(7-fluoro-1H-indazol-4-yl)-6-(2-oxaspiro[3,3]heptan-6-yloxy)-1H-1,7-one]	6.1
Nc1c(-c2ccc(F)c3[nH]ncc23)c2cc(OCCOC(F)(F)F)c3ncccc3c2[nH]c1=O [Compound C43, 3-Amino-4-(7-fluoro-1H-indazol-4-yl)-6-[2-(trifluoromethoxy)ethoxy]-1H-1,7-phenanthrolin-2-one]	19
Nc1c(-c2ccc(F)c3[nH]ncc23)c2cc(OCC3(C(F)(F)F)CC3)c3ncccc3c2[nH]c1=O [Compound C44, 3-Amino-4-(7-fluoro-1H-indazol-4-yl)-6-[[1-(trifluoromethyl)cyclopropyl]methoxy]-1H-1,7-one]	5.1
Nc1c(-c2ccc(F)c3[nH]ncc23)c2cc(OC3CCC(F)(F)CC3)c3ncccc3c2[nH]c1=O [Compound C48, 3-Amino-6-(4,4-difluorocyclohexyl)oxy-4-(7-fluoro-1H-indazol-4-yl)-1H-1,7-phenanthrolin-2-one]	10
CO[C@H](C)COc1cc2c(-c3ccc(F)c4[nH]ncc34)c(N)c(=O)[nH]c2c2cccnc12 [Compound C50, 3-Amino-4-(7-fluoro-1H-indazol-4-yl)-6-[(2R)-2-methoxypropoxy]-1H-1,7-phenanthrolin-2-one]	4
COC1(COc2cc3c(-c4ccc(F)c5[nH]ncc45)c(N)c(=O)[nH]c3c3cccnc23)CC1 [Compound C53, 3-Amino-4-(7-fluoro-1H-indazol-4-yl)-6-[(1-methoxycyclopropyl)methoxy]-1H-1,7-phenanthrolin-2-one]	4.2

More lines, in order of falling IC50, values ahead:

IC50 [nM]	Compound
4	Nc1c(-c2ccc(F)c3[nH]ncc23)c2cc(OCC3(F)COC3)c3ncccc3c2[nH]c1=O [Compound C40, 3-Amino-4-(7-fluoro-1H-indazol-4-yl)-6-[(3-fluorooxetan-3-yl)methoxy]-1H-1,7-phenanthrolin-2-one]
4	Nc1c(-c2ccc(F)c3[nH]ncc23)c2cc(OC3CCS(=O)(=O)CC3)c3ncccc3c2[nH]c1=O [Compound C47, 3-Amino-6-(1,1-dioxothian-4-yl)oxy-4-(7-fluoro-1H-indazol-4-yl)-1H-1,7-phenanthrolin-2-one]
3.9	Nc1c(-c2ccc(F)c3[nH]ncc23)c2cc(OC[C@@H]3CCCO3)c3ncccc3c2[nH]c1=O [Compound C37, 3-Amino-4-(7-fluoro-1H-indazol-4-yl)-6-[[(2S)-oxolan-2-yl]methoxy]-1H-1,7-phenanthrolin-2-one]
3.7	CC[C@H](C)Oc1cc2c(-c3ccc(F)c4[nH]ncc34)c(N)c(=O)[nH]c2c2cccnc12 [Compound C34, 3-Amino-6-[(2S)-butan-2-yl]oxy-4-(7-fluoro-1H-indazol-4-yl)-1H-1,7-phenanthrolin-2-one]
3.6	CO[C@@H](C)COc1cc2c(-c3ccc(F)c4[nH]ncc34)c(N)c(=O)[nH]c2c2cccnc12 [Compound C45, 3-Amino-4-(7-fluoro-1H-indazol-4-yl)-6-[(2S)-2-methoxypropoxy]-1H-1,7-phenanthrolin-2-one]
3.5	Nc1c(-c2ccc(F)c3[nH]ncc23)c2cc(OCCC(F)F)c3ncccc3c2[nH]c1=O [Compound C32, 3-Amino-6-(3,3-difluoropropoxy)-4-(7-fluoro-1H-indazol-4-yl)-1H-1,7-phenanthrolin-2-one]
3.5	N#C[C@H]1C[C@@H](Oc2cc3c(-c4ccc(F)c5[nH]ncc45)c(N)c(=O)[nH]c3c3cccnc23)C1 [Compound C33, (1s,3s)-3-[[3-Amino-4-(7-fluoro-1H-indazol-4-yl)-2-oxo-1H-1,7-phenanthrolin-6-yl]oxy]cyclobutane-1-carbonitrile]
2.9	Nc1c(-c2ccc(F)c3[nH]ncc23)c2cc(O[C@@H]3CCCOC3)c3ncccc3c2[nH]c1=O [Compound C46, 3-Amino-4-(7-fluoro-1H-indazol-4-yl)-6-[(3R)-oxan-3-yl]oxy-1H-1,7-phenanthrolin-2-one]
2.8	Nc1c(-c2ccc(F)c3[nH]ncc23)c2cc(OC(F)F)c3ncccc3c2[nH]c1=O [Compound C21, 3-Amino-6-(difluoromethoxy)-4-(7-fluoro-1H-indazol-4-yl)-1H-1,7-phenanthrolin-2-one]
2.8	CC(F)(F)COc1cc2c(-c3ccc(F)c4[nH]ncc34)c(N)c(=O)[nH]c2c2cccnc12 [Compound C25, 3-Amino-6-(2,2-difluoropropoxy)-4-(7-fluoro-1H-indazol-4-yl)-1H-1,7-phenanthrolin-2-one]
2.7	Nc1c(-c2ccc(F)c3[nH]ncc23)c2cc(O[C@H]3C[C@H](F)C3)c3ncccc3c2[nH]c1=O [Compound C42, 3-Amino-6-((1r,3r)-3-fluorocyclobutyl)oxy-4-(7-fluoro-1H-indazol-4-yl)-1H-1,7-phenanthrolin-2-one]
2.6	CC1(COc2cc3c(-c4ccc(F)c5[nH]ncc45)c(N)c(=O)[nH]c3c3cccnc23)CC(F)(F)C1 [Compound C52, 3-Amino-6-[(3,3-difluoro-1-methylcyclobutyl)methoxy]-4-(7-fluoro-1H-indazol-4-yl)-1H-1,7-one]
2.3	COCC(F)(F)COc1cc2c(-c3ccc(F)c4[nH]ncc34)c(N)c(=O)[nH]c2c2cccnc12 [Compound C26, 3-Amino-6-(2,2-difluoro-3-methoxypropoxy)-4-(7-fluoro-1H-indazol-4-yl)-1H-1,7-phenanthrolin-2-one]
2.2	Nc1c(-c2ccc(F)c3[nH]ncc23)c2cc(OCCCF)c3ncccc3c2[nH]c1=O [Compound C19, 3-Amino-4-(7-fluoro-1H-indazol-4-yl)-6-(3-fluoropropoxy)-1H-1,7-phenanthrolin-2-one]
2	Nc1c(-c2ccc(F)c3[nH]ncc23)c2cc(OC3CCC3)c3ncccc3c2[nH]c1=O [Compound C18, 3-Amino-6-cyclobutyloxy-4-(7-fluoro-1H-indazol-4-yl)-1H-1,7-phenanthrolin-2-one]
1.7	Nc1c(-c2ccc(F)c3[nH]ncc23)c2cc(OCC34CC(C3)C4)c3ncccc3c2[nH]c1=O [Compound C49, 3-Amino-6-(1-bicyclo[1.1.1]pentanylmethoxy)-4-(7-fluoro-1H-indazol-4-yl)-1H-1,7-phenanthrolin-2-one]
1.7	Nc1c(-c2ccc(F)c3[nH]ncc23)c2cc(O[C@H]3CCCOC3)c3ncccc3c2[nH]c1=O [Compound C51, 3-Amino-4-(7-fluoro-1H-indazol-4-yl)-6-[(3S)-oxan-3-yl]oxy-1H-1,7-phenanthrolin-2-one]
